The source of these data is ChEMBL document CHEMBL1146975, “Identification of cytotoxic, T-cell-selective 1,4-benzodiazepine-2,5-diones” (Bioorg Med Chem Lett, 2006).

Assay [1] deals with Ramos. As to the kind of experiment: Cytotoxicity against human Ramos B cells. The assay is classed as functional, cell-based.
Assay [2] concerns Jurkat. As to the kind of experiment: Cytotoxicity against human Jurkat T cells. The assay is classed as functional, cell-based.
Assay [3] is described as follows: Selectivity for Jurkat T cells over Ramos B cells. The assay is classed as functional.

Structures are written as SMILES.

For the molecule `CN1C(=O)C(CCc2ccccc2)NC(=O)c2cc(Cl)ccc21` (stereo not drawn), the EC50 in assay [1] was more than 100 µM; in assay [2] it was more than 80 µM.

As for `Cc1ccc(-c2ccc(CC3NC(=O)c4cc(Cl)ccc4N(C)C3=O)cc2)cc1` (stereo not drawn), the EC50 in assay [1] turned out to be 6.9 µM; in assay [2], 3.6 µM. For the same molecule, in assay [3], the “Ratio EC50” value was found to be 1.9.

Consider `CN1C(=O)C(Cc2ccc(-c3cccc(Cl)c3)cc2)NC(=O)c2cc(Cl)ccc21` (stereo not drawn), for which the results for the EC50 in assay [1] and in assay [2] were 1.5 µM and 2 µM, respectively. Moreover, in assay [3], the “Ratio EC50” value is 0.8.

`CN1C(=O)C(Cc2ccc(-c3ccoc3)cc2)NC(=O)c2cc(Cl)ccc21` (stereo not drawn): the EC50 in assay [1] amounted to 2 µM; in assay [2], 0.3 µM. In addition, the “Ratio EC50” value in assay [3] is on record as 6.5.

In the case of `CN1C(=O)C(Cc2ccc(-c3ccc(C(=O)O)cc3)cc2)NC(=O)c2cc(Cl)ccc21` (stereo not drawn), the EC50 in assay [1] worked out at 31.8 µM; in assay [2], 15.1 µM. In addition, the “Ratio EC50” value in assay [3] worked out at 2.1.

For `CN1C(=O)C(Cc2ccc(-c3cccc(C(F)(F)F)c3)cc2)NC(=O)c2cc(Cl)ccc21` (stereo not drawn), the EC50 in assay [1] worked out at 4 µM; in assay [2] it was 4.5 µM. In addition, in assay [3], the “Ratio EC50” value came to 0.9.

Consider `CN1C(=O)C(Cc2ccc(-c3cccc(Br)c3)cc2)NC(=O)c2cc(Cl)ccc21` (stereo not drawn), for which the EC50 in assay [1] stood at 9.2 µM; in assay [2] it was 4.8 µM. In assay [3], the “Ratio EC50” value is listed as 1.9.

As for `CN1C(=O)C(Cc2ccc(-c3ccccc3)cc2)NC(=O)c2cc(Cl)ccc21` (stereo not drawn), the figures for the EC50 in assay [1] and in assay [2] were 6.2 µM and 2.3 µM, respectively.

Regarding `CN1C(=O)C(Cc2ccc(-c3ccc(Br)cc3)cc2)NC(=O)c2cc(Cl)ccc21` (stereo not drawn), the values for the EC50 in assay [1] and in assay [2] were more than 20 µM and 9.8 µM, respectively. Further, the “Ratio EC50” value in assay [3] is on record as more than 2.

For `CN1C(=O)C(Cc2ccc(-c3ccncc3)cc2)NC(=O)c2cc(Cl)ccc21` (stereo not drawn), the EC50 in assay [1] was determined as 3 µM; in assay [2], 0.5 µM. In addition, in assay [3], the “Ratio EC50” value is given as 6.

As to `CN1C(=O)C(Cc2ccc(/C=C/c3ccccc3)cc2)NC(=O)c2cc(Cl)ccc21` (stereo not drawn), the EC50 in assay [1] was 50.3 µM; in assay [2], 7.5 µM.

With `CN1C(=O)C(Cc2cccc(-c3ccccc3)c2)NC(=O)c2cc(Cl)ccc21` (stereo not drawn), the results for the EC50 in assay [1] and in assay [2] were 19.1 µM and 5.4 µM, respectively.

Take `CN1C(=O)C(Cc2ccc(-c3ccc([N+](=O)[O-])cc3)cc2)NC(=O)c2cc(Cl)ccc21` (stereo not drawn): the results for the EC50 in assay [1] and in assay [2] were 10 µM and 3.8 µM, respectively. Also, the “Ratio EC50” value in assay [3] was determined as 2.6.

With `CN1C(=O)C(Cc2ccc(-c3cccc(C(=O)O)c3)cc2)NC(=O)c2cc(Cl)ccc21` (stereo not drawn), the EC50 in assay [1] and in assay [2] was more than 20 µM in each case.

As to `CN1C(=O)C(Cc2c[nH]c3ccccc23)NC(=O)c2cc(Cl)ccc21` (stereo not drawn), the EC50 in assay [1] was determined as 9.2 µM; in assay [2], 26.2 µM.

Regarding `CN1C(=O)C(Cc2ccccc2)NC(=O)c2cc(Cl)ccc21` (stereo not drawn), the 50% effective concentration (EC50) in assay [1] was more than 100 µM; in assay [2] it was more than 80 µM.

For the molecule `CN1C(=O)C(Cc2ccc(-c3cccnc3)cc2)NC(=O)c2cc(Cl)ccc21` (stereo not drawn), the results for the EC50 in assay [1] and in assay [2] were 6 µM and 0.6 µM, respectively. Besides, the “Ratio EC50” value in assay [3] was found to be 10.

In the case of `Cc1ccccc1-c1ccc(CC2NC(=O)c3cc(Cl)ccc3N(C)C2=O)cc1` (stereo not drawn), the values for the EC50 in assay [1] and in assay [2] were 6.7 µM and 5.4 µM, respectively. The “Ratio EC50” value in assay [3] stood at 1.2.

Consider `CN1C(=O)C(Cc2ccc3ccccc3c2)NC(=O)c2cc(Cl)ccc21` (stereo not drawn), for which the figures for the concentration giving a half-maximal response (EC50) in assay [1] and in assay [2] were 10.7 µM and 3 µM, respectively.

For `CN1C(=O)C(Cc2ccc(-c3cccc([N+](=O)[O-])c3)cc2)NC(=O)c2cc(Cl)ccc21` (stereo not drawn), the EC50 in assay [1] was found to be 4.2 µM; in assay [2] it was 1.5 µM. In assay [3], the “Ratio EC50” value was determined as 2.8.

Regarding `CN1C(=O)C(Cc2ccc(-c3cccc(O)c3)cc2)NC(=O)c2cc(Cl)ccc21` (stereo not drawn), the EC50 in assay [1] came out at 4 µM; in assay [2], 1.5 µM. Moreover, the “Ratio EC50” value in assay [3] is 2.7.

On to `CN1C(=O)C(Cc2ccc(-c3ccccc3[N+](=O)[O-])cc2)NC(=O)c2cc(Cl)ccc21` (stereo not drawn), for which the EC50 in assay [1] and in assay [2] was more than 20 µM throughout.

Turning to `CN1C(=O)C(Cc2ccc(-c3ccc(Cl)cc3)cc2)NC(=O)c2cc(Cl)ccc21` (stereo not drawn), the concentration giving a half-maximal response (EC50) in assay [1] and in assay [2] was 6.5 µM throughout. The “Ratio EC50” value in assay [3] was 1.

Turning to `CN1C(=O)C(Cc2ccc(C(C)(C)C)cc2)NC(=O)c2cc(Cl)ccc21` (stereo not drawn), the EC50 turned out to be 16.2 µM in assay [1] and 8.2 µM in assay [2].

As to `CN1C(=O)C(Cc2ccc(-c3ccc(O)cc3)cc2)NC(=O)c2cc(Cl)ccc21` (stereo not drawn), the figures for the half-maximal effective concentration (EC50) in assay [1] and in assay [2] were 6 µM and 1.5 µM, respectively. Further, the “Ratio EC50” value in assay [3] is 4.

In the case of `CN1C(=O)C(Cc2ccc(-c3ccc(C(F)(F)F)cc3)cc2)NC(=O)c2cc(Cl)ccc21` (stereo not drawn), the EC50 was 4.8 µM in assay [1] and 5.2 µM in assay [2]. The “Ratio EC50” value in assay [3] was found to be 0.9.

For the molecule `CN1C(=O)C(Cc2ccc(-c3ccccc3Cl)cc2)NC(=O)c2cc(Cl)ccc21` (stereo not drawn), the EC50 in assay [1] is 10.3 µM; in assay [2], 8.3 µM. For the same molecule, the “Ratio EC50” value in assay [3] worked out at 1.2.

Turning to `CN1C(=O)C(Cc2ccccc2Cc2ccccc2)NC(=O)c2cc(Cl)ccc21` (stereo not drawn), the EC50 came out at 18.6 µM in assay [1] and 17.6 µM in assay [2].

Turning to `CN1C(=O)C(Cc2cccc3ccccc23)NC(=O)c2cc(Cl)ccc21` (stereo not drawn), the EC50 worked out at 12.6 µM in assay [1] and 20.5 µM in assay [2].

Consider `Cc1cccc(-c2ccc(CC3NC(=O)c4cc(Cl)ccc4N(C)C3=O)cc2)c1` (stereo not drawn), for which the EC50 is 2.8 µM in assay [1] and 3.1 µM in assay [2]. The “Ratio EC50” value in assay [3] turned out to be 0.9.
